Measurements taken from the OligoGym collection.
Oligonucleotides are given in HELM: sugar(base)linkage, 5' to 3'; d 2'-deoxyribose, r ribose, m 2'-O-methylribose, p phosphate. ss, as = sense and antisense strand
Note: test concentration or dose not given here.

What follows are substances tested against UBE2N (assay: reporter assay of Huesken 2005). Conditions: siRNA.
Work on “RNA1{r(C)p.r(G)p.r(A)p.r(A)p.r(G)p.r(C)p.r(C)p.r(C)p.r(A)p.r(A)p.r(G)p.r(C)p.r(C)p.r(A)p.r(U)p.r(A)p.r(G)p.r(A)p.r(A)p.d(T)p.d(T)}|RNA2{r(U)p.r(U)p.r(C)p.r(U)p.r(A)p.r(U)p.r(G)p.r(G)p.r(C)p.r(U)p.r(U)p.r(G)p.r(G)p.r(G)p.r(C)p.r(U)p.r(U)p.r(C)p.r(G)p.d(T)p.d(T)}$$$RNA1{StrandType:ss}|RNA2{StrandType:as}$” yielded a normalised inhibition (eCFP-eYFP dual reporter) of 84.1%. Work on “RNA1{r(C)p.r(A)p.r(G)p.r(U)p.r(G)p.r(G)p.r(A)p.r(A)p.r(G)p.r(A)p.r(C)p.r(C)p.r(A)p.r(A)p.r(C)p.r(G)p.r(A)p.r(A)p.r(G)p.d(T)p.d(T)}|RNA2{r(C)p.r(U)p.r(U)p.r(C)p.r(G)p.r(U)p.r(U)p.r(G)p.r(G)p.r(U)p.r(C)p.r(U)p.r(U)p.r(C)p.r(C)p.r(A)p.r(C)p.r(U)p.r(G)p.d(C)p.d(T)}$$$RNA1{StrandType:ss}|RNA2{StrandType:as}$” yielded a normalised inhibition (eCFP-eYFP dual reporter) of 78%. “RNA1{r(G)p.r(U)p.r(A)p.r(G)p.r(A)p.r(C)p.r(A)p.r(A)p.r(G)p.r(U)p.r(U)p.r(G)p.r(G)p.r(G)p.r(A)p.r(A)p.r(G)p.r(A)p.r(A)p.d(T)p.d(T)}|RNA2{r(U)p.r(U)p.r(C)p.r(U)p.r(U)p.r(C)p.r(C)p.r(C)p.r(A)p.r(A)p.r(C)p.r(U)p.r(U)p.r(G)p.r(U)p.r(C)p.r(U)p.r(A)p.r(C)p.d(A)p.d(T)}$$$RNA1{StrandType:ss}|RNA2{StrandType:as}$” was tested, and the normalised inhibition (eCFP-eYFP dual reporter) was 94%. “RNA1{r(U)p.r(A)p.r(G)p.r(A)p.r(U)p.r(A)p.r(U)p.r(U)p.r(U)p.r(U)p.r(G)p.r(A)p.r(A)p.r(A)p.r(G)p.r(A)p.r(U)p.r(A)p.r(A)p.d(T)p.d(T)}|RNA2{r(U)p.r(U)p.r(A)p.r(U)p.r(C)p.r(U)p.r(U)p.r(U)p.r(C)p.r(A)p.r(A)p.r(A)p.r(A)p.r(U)p.r(A)p.r(U)p.r(C)p.r(U)p.r(A)p.d(G)p.d(A)}$$$RNA1{StrandType:ss}|RNA2{StrandType:as}$” gave a normalised inhibition (eCFP-eYFP dual reporter) of 80.6%. In the case of “RNA1{r(G)p.r(C)p.r(A)p.r(A)p.r(A)p.r(U)p.r(G)p.r(A)p.r(U)p.r(G)p.r(U)p.r(A)p.r(G)p.r(C)p.r(G)p.r(G)p.r(A)p.r(G)p.r(C)p.d(T)p.d(T)}|RNA2{r(G)p.r(C)p.r(U)p.r(C)p.r(C)p.r(G)p.r(C)p.r(U)p.r(A)p.r(C)p.r(A)p.r(U)p.r(C)p.r(A)p.r(U)p.r(U)p.r(U)p.r(G)p.r(C)p.d(T)p.d(A)}$$$RNA1{StrandType:ss}|RNA2{StrandType:as}$”, the normalised inhibition (eCFP-eYFP dual reporter) is reported as 49.8%.

Each substance was assayed against UBE2K (assay: reporter assay of Huesken 2005). Conditions: siRNA.
Work on “RNA1{r(U)p.r(A)p.r(U)p.r(U)p.r(G)p.r(U)p.r(C)p.r(A)p.r(U)p.r(U)p.r(G)p.r(C)p.r(A)p.r(A)p.r(G)p.r(C)p.r(A)p.r(C)p.r(U)p.d(T)p.d(T)}|RNA2{r(A)p.r(G)p.r(U)p.r(G)p.r(C)p.r(U)p.r(U)p.r(G)p.r(C)p.r(A)p.r(A)p.r(U)p.r(G)p.r(A)p.r(C)p.r(A)p.r(A)p.r(U)p.r(A)p.d(A)p.d(T)}$$$RNA1{StrandType:ss}|RNA2{StrandType:as}$” yielded a normalised inhibition (eCFP-eYFP dual reporter) of 89.2%. With “RNA1{r(U)p.r(U)p.r(U)p.r(G)p.r(U)p.r(U)p.r(U)p.r(G)p.r(G)p.r(A)p.r(U)p.r(A)p.r(U)p.r(C)p.r(C)p.r(U)p.r(G)p.r(A)p.r(A)p.d(T)p.d(T)}|RNA2{r(U)p.r(U)p.r(C)p.r(A)p.r(G)p.r(G)p.r(A)p.r(U)p.r(A)p.r(U)p.r(C)p.r(C)p.r(A)p.r(A)p.r(A)p.r(C)p.r(A)p.r(A)p.r(A)p.d(T)p.d(A)}$$$RNA1{StrandType:ss}|RNA2{StrandType:as}$” the normalised inhibition (eCFP-eYFP dual reporter) was 78.9%. Substance “RNA1{r(C)p.r(C)p.r(G)p.r(C)p.r(A)p.r(C)p.r(G)p.r(G)p.r(U)p.r(A)p.r(U)p.r(U)p.r(A)p.r(U)p.r(U)p.r(G)p.r(U)p.r(C)p.r(A)p.d(T)p.d(T)}|RNA2{r(U)p.r(G)p.r(A)p.r(C)p.r(A)p.r(A)p.r(U)p.r(A)p.r(A)p.r(U)p.r(A)p.r(C)p.r(C)p.r(G)p.r(U)p.r(G)p.r(C)p.r(G)p.r(G)p.d(A)p.d(G)}$$$RNA1{StrandType:ss}|RNA2{StrandType:as}$” has a normalised inhibition (eCFP-eYFP dual reporter) of 63.3%. With “RNA1{r(C)p.r(C)p.r(C)p.r(G)p.r(A)p.r(A)p.r(A)p.r(U)p.r(G)p.r(U)p.r(U)p.r(C)p.r(A)p.r(A)p.r(A)p.r(C)p.r(A)p.r(G)p.r(A)p.d(T)p.d(T)}|RNA2{r(U)p.r(C)p.r(U)p.r(G)p.r(U)p.r(U)p.r(U)p.r(G)p.r(A)p.r(A)p.r(C)p.r(A)p.r(U)p.r(U)p.r(U)p.r(C)p.r(G)p.r(G)p.r(G)p.d(A)p.d(T)}$$$RNA1{StrandType:ss}|RNA2{StrandType:as}$” the normalised inhibition (eCFP-eYFP dual reporter) was 92.7%. With “RNA1{r(G)p.r(G)p.r(C)p.r(A)p.r(G)p.r(C)p.r(U)p.r(G)p.r(C)p.r(A)p.r(A)p.r(U)p.r(G)p.r(A)p.r(C)p.r(U)p.r(C)p.r(U)p.r(C)p.d(T)p.d(T)}|RNA2{r(G)p.r(A)p.r(G)p.r(A)p.r(G)p.r(U)p.r(C)p.r(A)p.r(U)p.r(U)p.r(G)p.r(C)p.r(A)p.r(G)p.r(C)p.r(U)p.r(G)p.r(C)p.r(C)p.d(C)p.d(A)}$$$RNA1{StrandType:ss}|RNA2{StrandType:as}$” the normalised inhibition (eCFP-eYFP dual reporter) was 57.6%. Work on “RNA1{r(A)p.r(U)p.r(C)p.r(A)p.r(A)p.r(U)p.r(G)p.r(G)p.r(G)p.r(C)p.r(A)p.r(G)p.r(C)p.r(U)p.r(G)p.r(C)p.r(A)p.r(A)p.r(U)p.d(T)p.d(T)}|RNA2{r(A)p.r(U)p.r(U)p.r(G)p.r(C)p.r(A)p.r(G)p.r(C)p.r(U)p.r(G)p.r(C)p.r(C)p.r(C)p.r(A)p.r(U)p.r(U)p.r(G)p.r(A)p.r(U)p.d(C)p.d(T)}$$$RNA1{StrandType:ss}|RNA2{StrandType:as}$” yielded a normalised inhibition (eCFP-eYFP dual reporter) of 48.4%. Substance “RNA1{r(A)p.r(U)p.r(C)p.r(U)p.r(U)p.r(G)p.r(U)p.r(A)p.r(G)p.r(A)p.r(U)p.r(G)p.r(A)p.r(G)p.r(A)p.r(A)p.r(U)p.r(U)p.r(U)p.d(T)p.d(T)}|RNA2{r(A)p.r(A)p.r(A)p.r(U)p.r(U)p.r(C)p.r(U)p.r(C)p.r(A)p.r(U)p.r(C)p.r(U)p.r(A)p.r(C)p.r(A)p.r(A)p.r(G)p.r(A)p.r(U)p.d(C)p.d(T)}$$$RNA1{StrandType:ss}|RNA2{StrandType:as}$” has a normalised inhibition (eCFP-eYFP dual reporter) of 81.3%. “RNA1{r(A)p.r(C)p.r(U)p.r(A)p.r(U)p.r(U)p.r(G)p.r(G)p.r(C)p.r(A)p.r(G)p.r(C)p.r(U)p.r(G)p.r(C)p.r(A)p.r(G)p.r(A)p.r(G)p.d(T)p.d(T)}|RNA2{r(C)p.r(U)p.r(C)p.r(U)p.r(G)p.r(C)p.r(A)p.r(G)p.r(C)p.r(U)p.r(G)p.r(C)p.r(C)p.r(A)p.r(A)p.r(U)p.r(A)p.r(G)p.r(U)p.d(G)p.d(C)}$$$RNA1{StrandType:ss}|RNA2{StrandType:as}$” gave a normalised inhibition (eCFP-eYFP dual reporter) of 62%. In the case of “RNA1{r(U)p.r(G)p.r(A)p.r(A)p.r(G)p.r(G)p.r(A)p.r(G)p.r(G)p.r(A)p.r(A)p.r(G)p.r(A)p.r(U)p.r(A)p.r(C)p.r(C)p.r(A)p.r(A)p.d(T)p.d(T)}|RNA2{r(U)p.r(U)p.r(G)p.r(G)p.r(U)p.r(A)p.r(U)p.r(C)p.r(U)p.r(U)p.r(C)p.r(C)p.r(U)p.r(C)p.r(C)p.r(U)p.r(U)p.r(C)p.r(A)p.d(T)p.d(A)}$$$RNA1{StrandType:ss}|RNA2{StrandType:as}$”, the normalised inhibition (eCFP-eYFP dual reporter) is reported as 82.7%. For “RNA1{r(G)p.r(C)p.r(A)p.r(G)p.r(C)p.r(U)p.r(G)p.r(C)p.r(A)p.r(A)p.r(U)p.r(G)p.r(A)p.r(C)p.r(U)p.r(C)p.r(U)p.r(C)p.r(C)p.d(T)p.d(T)}|RNA2{r(G)p.r(G)p.r(A)p.r(G)p.r(A)p.r(G)p.r(U)p.r(C)p.r(A)p.r(U)p.r(U)p.r(G)p.r(C)p.r(A)p.r(G)p.r(C)p.r(U)p.r(G)p.r(C)p.d(C)p.d(C)}$$$RNA1{StrandType:ss}|RNA2{StrandType:as}$”, the normalised inhibition (eCFP-eYFP dual reporter) was 47.4%. With “RNA1{r(C)p.r(C)p.r(A)p.r(G)p.r(A)p.r(U)p.r(G)p.r(A)p.r(U)p.r(C)p.r(C)p.r(A)p.r(C)p.r(A)p.r(G)p.r(G)p.r(A)p.r(U)p.r(G)p.d(T)p.d(T)}|RNA2{r(C)p.r(A)p.r(U)p.r(C)p.r(C)p.r(U)p.r(G)p.r(U)p.r(G)p.r(G)p.r(A)p.r(U)p.r(C)p.r(A)p.r(U)p.r(C)p.r(U)p.r(G)p.r(G)p.d(C)p.d(T)}$$$RNA1{StrandType:ss}|RNA2{StrandType:as}$” the normalised inhibition (eCFP-eYFP dual reporter) was 66.7%. For “RNA1{r(A)p.r(C)p.r(U)p.r(A)p.r(A)p.r(A)p.r(A)p.r(U)p.r(A)p.r(U)p.r(G)p.r(G)p.r(C)p.r(A)p.r(U)p.r(C)p.r(C)p.r(U)p.r(A)p.d(T)p.d(T)}|RNA2{r(U)p.r(A)p.r(G)p.r(G)p.r(A)p.r(U)p.r(G)p.r(C)p.r(C)p.r(A)p.r(U)p.r(A)p.r(U)p.r(U)p.r(U)p.r(U)p.r(A)p.r(G)p.r(U)p.d(G)p.d(A)}$$$RNA1{StrandType:ss}|RNA2{StrandType:as}$”, the normalised inhibition (eCFP-eYFP dual reporter) was 76%. “RNA1{r(G)p.r(U)p.r(A)p.r(C)p.r(A)p.r(A)p.r(A)p.r(C)p.r(A)p.r(A)p.r(A)p.r(A)p.r(U)p.r(C)p.r(C)p.r(C)p.r(G)p.r(A)p.r(A)p.d(T)p.d(T)}|RNA2{r(U)p.r(U)p.r(C)p.r(G)p.r(G)p.r(G)p.r(A)p.r(U)p.r(U)p.r(U)p.r(U)p.r(G)p.r(U)p.r(U)p.r(U)p.r(G)p.r(U)p.r(A)p.r(C)p.d(T)p.d(G)}$$$RNA1{StrandType:ss}|RNA2{StrandType:as}$” gave a normalised inhibition (eCFP-eYFP dual reporter) of 73.9%. Work on “RNA1{r(C)p.r(A)p.r(G)p.r(A)p.r(G)p.r(C)p.r(C)p.r(A)p.r(G)p.r(A)p.r(U)p.r(G)p.r(A)p.r(U)p.r(C)p.r(C)p.r(A)p.r(C)p.r(A)p.d(T)p.d(T)}|RNA2{r(U)p.r(G)p.r(U)p.r(G)p.r(G)p.r(A)p.r(U)p.r(C)p.r(A)p.r(U)p.r(C)p.r(U)p.r(G)p.r(G)p.r(C)p.r(U)p.r(C)p.r(U)p.r(G)p.d(C)p.d(A)}$$$RNA1{StrandType:ss}|RNA2{StrandType:as}$” yielded a normalised inhibition (eCFP-eYFP dual reporter) of 82.5%. “RNA1{r(A)p.r(G)p.r(A)p.r(A)p.r(A)p.r(C)p.r(A)p.r(U)p.r(A)p.r(C)p.r(C)p.r(C)p.r(A)p.r(U)p.r(U)p.r(U)p.r(A)p.r(A)p.r(U)p.d(T)p.d(T)}|RNA2{r(A)p.r(U)p.r(U)p.r(A)p.r(A)p.r(A)p.r(U)p.r(G)p.r(G)p.r(G)p.r(U)p.r(A)p.r(U)p.r(G)p.r(U)p.r(U)p.r(U)p.r(C)p.r(U)p.d(G)p.d(G)}$$$RNA1{StrandType:ss}|RNA2{StrandType:as}$” gave a normalised inhibition (eCFP-eYFP dual reporter) of 72.3%.
